Measurements taken from US7244730B2, “2-iminopyrrolidine derivatives” (Eisai Co., Ltd, priority 2001, dated 2007).
Where a name gives a salt, the structure may show the parent alone. Read-outs that look alike come from different tables or passages of the source.

Tests used:
[1] = tested on: platelet rich plasma (PRP), thrombin-induced platelet aggregation; assay: Inhibitory effects on platelet aggregation using platelet rich plasma; assay type: cell-based; conditions: Homo sapiens, 0.1 h, read-out: Thr IC50
Experimental: [Inhibitory Effects on Platelet Aggregation Using Platelet Rich Plasma]
Blood was sampled from a healthy adult who had taken no drugs for one week, and 3.8% citric acid (a ratio of 1:9 with respect to the blood) was added as an anticoagulant. The mixture was then centrifuged at 100 g for 10 minutes at room temperature to yield platelet rich plasma (PRP). The PRP-removed blood was further centrifuged at 1000 g for 10 minutes to yield platelet poor plasma (PPP). The number of platelet was counted using a multi-parameter automatic hemocyte counter (K4500, Sysmex), and the PRP was diluted to approximately 300,000/μl with the PPP. The platelet aggregation activity was determined in the following manner using an Aggregometer (MC Medical). GPRP-NH2 (final concentration 1 mM, 25 μl) was added as a fibrin polymerization inhibitor to the PRP (175 μl), after which Ca-free Tyrode solution (control) or the test compound suspension (25 μl) at different concentrations was added, incubation was performed at 37° C. for 3 minutes and then 25 μl of thrombin at the minimum concentration required to produce maximum aggregation (final concentration: optimum concentration among 0.5–1.5 units/ml) was added, for initiation of platelet aggregation. PRP and Ca-free Tyrode solution (control) or the preparation solutions at various concentrations were pre-incubated at 37° C. for 60 minutes, prior to the platelet aggregation reaction in some experiments. After addition of thrombin, the aggregation reaction was examined for 6 minutes and the areas under the aggregation curves were compared to determine the inhibition ratio, from which the IC50 value was calculated.

thrombin receptor = biological target: T1, thrombin receptor (Homo sapiens, UniProt P25116); assay: Receptor binding assay ([3H] high affinity TRAP, platelet membrane)
T1 construct: centrifuged at 40,000 g for 60 minutes to yield platelet membrane; from tissue; host or cells: platelet membrane prepared from donor blood (platelet rich plasma)
T1 sequence (P25116 22-425): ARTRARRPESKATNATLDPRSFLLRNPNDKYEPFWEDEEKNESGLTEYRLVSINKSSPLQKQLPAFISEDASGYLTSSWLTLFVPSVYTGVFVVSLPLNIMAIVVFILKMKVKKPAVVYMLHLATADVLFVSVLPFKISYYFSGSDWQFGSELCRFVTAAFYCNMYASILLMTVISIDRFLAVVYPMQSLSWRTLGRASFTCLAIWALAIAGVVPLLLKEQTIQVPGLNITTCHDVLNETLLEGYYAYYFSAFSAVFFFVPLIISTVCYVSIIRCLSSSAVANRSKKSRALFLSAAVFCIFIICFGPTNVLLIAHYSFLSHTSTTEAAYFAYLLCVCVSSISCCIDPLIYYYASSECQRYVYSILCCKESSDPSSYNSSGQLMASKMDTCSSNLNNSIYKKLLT
Experimental: Blood was sampled from a healthy adult who had taken no drugs for one week, and 3.8% citric acid (a ratio of 1:9 with respect to the blood) was added as an anticoagulant. The mixture was then centrifuged at 100 g for 10 minutes at room temperature to yield platelet rich plasma (PRP). The platelet precipitate obtained by centrifuging the PRP was homogenized with a Dounce homogenizer, and then centrifuged at 40,000 g for 60 minutes to yield platelet membrane. The platelet membrane was suspended in a solution prepared by adding DMSO (dimethyl sulfoxide) at 1% concentration to Buffer 1: a 50 mM Tris-HCl buffer containing 10 mM MgCl2 and 1 mM EGTA (ethylene glycol tetraacetic acid), and the suspension was stored at −80° C. Bovine albumin and DMSO were added to Buffer 1 at 0.1% and 20%, respectively, to make preparation solutions for the test compound. The test compounds (20 μl) diluted at various concentrations with the preparation solutions were added to a 96-well multiscreen plate. […] After then adding 100 μl of the previously prepared platelet membrane suspension (0.4 mg/ml) and mixing, incubation was performed at 37° C. for 1 hour. The reaction mixture was suction filtered and then rinsed 3 times with 200 μl of Buffer 1. Next, 30 μl of liquid scintillator was added for measurement of the radioactivity of the plate using a Top Counter (Packard), the value of the radioactivity in the presence of the test compound minus non-specific binding portion was divided by the specific binding value (the value of the binding in the absence of the compound minus the non-specific binding portion) to determine the binding ratio, from which the IC50 value was calculated. The non-specific binding was the value obtained with addition of 10 μM of high affinity TRAP.

[2] = tested on: Vascular smooth muscle cells (rSMC); assay: Rat smooth muscle cell proliferation assay; assay type: cell-based; conditions: 48 h; male SD rat aorta rSMC; thrombin 0.1 unit/ml; 2 days; MTT, OD 590 nm; read-out: Rat SMC IC50
Experimental: [Rat Smooth Muscle Cell Proliferation Assay]
Vascular smooth muscle cells (rSMC) were isolated from male SD rat aorta by the explant method. DMEM medium (Sigma) containing 10% fetal bovine serum (GibcoBRL), streptomycin and penicillin was used as the proliferation medium, and subculture was carried out at 37° C. in the presence of 5% CO2. Culture was initiated after adding 100 μl of rSMC suspension in proliferation medium at a concentration of 1×10^4 cells/ml, to a 96-well plate. After 3 days, cells were rinsed twice with 100 μl of DMEM medium, the medium was exchanged with 100 μl of DMEM medium containing 0.1% albumin (starvation medium), and serum starvation was initiated. The medium was exchanged two days after the serum starvation, 80 μl of starvation medium and 10 μl of the test compound diluted to different concentrations with the starvation medium were added, and then 10 μl of thrombin dissolved in the starvation medium (final concentration: 0.1 unit/ml) was added prior to further incubation for 2 days.
Upon adding 20 μl of MTT (3-[4,5-dimethylthiazol-2-yl]-2,5-diphenyltetrazolium bromide) dissolved in DPBS to 7.5 mg/ml, incubation was continued for 4 hours. The medium was removed by suction, 50 μl of a 10% SDS/0.029% ammonia solution was added, and the mixture was allowed to stand for 2 hours in a CO2 incubator for complete lysis of the cells. As an index of cell proliferation, the OD 590 nm was measured using a plate reader (EL340, BIO-TEK Instruments Inc.), and the control OD value (OD value in the absence of the test compound) minus the OD value in the presence of the test compound was divided by the control OD value minus the blank OD value (OD value without thrombin stimulation) to determine the inhibition ratio, from which the IC50 value was calculated.

[3] = PRP of healthy adult, aggregation initiated with thrombin (0.5–1.5 units/ml), area under aggregation curve, 6 minutes
[4] = platelet membrane of healthy adult, 25 nM [3H] high affinity TRAP, 37° C., 1 hour, read-out: RBA IC50

Compound | IC50 [1] [µM] | IC50 (thrombin receptor) [µM] | IC50 [2] [µM] | IC50 [1, 3] [µM] | IC50 (thrombin receptor; [4]) [µM]
CCNC(=O)Oc1c(OCC)cc(C(=O)CN2Cc3cc(OCC)c(OCC)c(F)c3C2=N)cc1C(C)(C)C [Example 29, 2-tert-butyl-4-[2-(5,6-diethoxy-7-fluoro-1-imino-1,3-dihydro-isoindol-2-yl)-acetyl]-6-ethoxy-phenyl ethylcarbamate hydrobromide] | 0.052 | 0.076 | 0.07 | – | –
CCOc1cc2c(c(F)c1OCC)C(=N)N(CC(=O)c1cc(N3CCN(C(=O)COC)CC3)c(OC)c(C(C)(C)C)c1)C2 [Example 16, 1-{3-tert-Butyl-4-methoxy-5-[4-(2-methoxy-acetyl)piperazin-1-yl]phenyl}-2-(5,6-diethoxy-7-fluoro-1-imino-1,3-dihydro-isoindol-2-yl)-ethanone hydrobromide] | – | – | 0.059 | 0.057 | 0.053
CCOc1cc2c(c(F)c1OCC)C(=N)N(CC(=O)c1cc(N(C)C)c(OC)c(C(C)(C)C)c1)C2 [Example 6, 1-(3-tert-Butyl-5-dimethylamino-4-methoxy-phenyl)-2-(5,6-diethoxy-7-fluoro-1-imino-1,3-dihydro-isoindol-2-yl)-ethanone hydrobromide] | – | – | 0.019 | 0.072 | 0.024
CCOc1cc2c(c(F)c1OCC)C(=N)N(CC(=O)c1cc(N3C[C@@H](O)[C@H](OC)C3)c(OC)c(C(C)(C)C)c1)C2 [Example 12, 1-[3-tert-Butyl-5-((3R,4R)-3-hydroxy-4-methoxy-pyrrolidin-1-yl)-4-methoxy-phenyl]-2-(5,6-diethoxy-7-fluoro-1-imino-1,3-dihydro-isoindol-2-yl)-ethanone trifluoroacetate] | – | – | 0.021 | 0.041 | 0.045
CCOc1cc2c(c(F)c1OCC)C(=N)N(CC(=O)c1cc(NC(C)C)c(OC)c(C(C)(C)C)c1)C2 [Example 26, 1-(3-tert-Butyl-5-isopropylamino-4-methoxy-phenyl)-2-(5,6-diethoxy-7-fluoro-1-imino-1,3-dihydro-isoindol-2-yl)-ethanone hydrobromide] | – | – | 0.062 | 0.079 | 0.017
CCOc1cc2c(c(F)c1OCC)C(=N)N(CC(=O)c1cc(N3CCN(C(C)=O)CC3)c(OC)c(C(C)(C)C)c1)C2 [Example 13, 1-[3-(4-Acetyl-piperazin-1-yl)-5-tert-butyl-4-methoxy-phenyl]-2-(5,6-diethoxy-7-fluoro-1-imino-1,3-dihydro-isoindol-2-yl)ethanone hydrobromide] | – | – | 0.12 | 0.045 | 0.046
CCOc1cc2c(c(F)c1OCC)C(=N)N(CC(=O)c1cc(NCC#N)c(OC)c(C(C)(C)C)c1)C2 [Example 10, (3-tert-Butyl-5-[2-(5,6-diethoxy-7-fluoro-1-imino-1,3-dihydro-isoindol-2-yl)-acetyl]-2-methoxy-phenylamino}-acetonitrile hydrobromide] | – | – | 0.034 | 0.024 | 0.026
CCOc1cc2c(c(F)c1OCC)C(=N)N(CC(=O)c1cc(N3CCOCC3)c(OC)c(C(C)(C)C)c1)C2 [Example 7] | – | – | 0.032 | 0.041 | 0.026
CCOc1cc2c(c(F)c1OCC)C(=N)N(CC(=O)c1cc3c(c(C(C)(C)C)c1)OCCN3CC#N)C2 [Example 5, {8-tert-Butyl-6-[2-(5,6-diethoxy-7-fluoro-1-imino-1,3-dihydro-isoindol-2-yl)acetyl]-2,3-dihydrobenzo[1,4]oxazin-4-yl}acetonitrile hydrobromide] | – | – | 0.0061 | 0.29 | 0.017
CCOc1cc(C(=O)CN2Cc3cc(OCC)c(OCC)c(F)c3C2=N)cc(C(C)(C)C)c1OC [Example 28, 1-(3-tert-Butyl-5-ethoxy-4-methoxy-phenyl)-2-(5,6-diethoxy-7-fluoro-1-imino-1,3-dihydro-isoindol-2-yl)-ethanone hydrobromide] | – | – | 0.05 | 0.044 | 0.026
CCOc1cc2c(c(F)c1OCC)C(=N)N(CC(=O)c1cc(N3CCN(CC#N)CC3)c(OC)c(C(C)(C)C)c1)C2 [Example 11, (4-{3-tert-Butyl-5-[2-(5,6-diethoxy-7-fluoro-1-imino-1,3-dihydro-isoindol-2-yl)-acetyl]-2-methoxy-phenyl}piperazin-1-yl)-acetonitrile hydrobromide] | – | – | 0.075 | 0.057 | 0.045
CCOc1cc2c(c(F)c1OCC)C(=N)N(CC(=O)c1cc(N3CCC(=O)CC3)c(OC)c(C(C)(C)C)c1)C2 [Example 94, 1-{3-tert-Butyl-5-[2-(5,6-diethoxy-7-fluoro-1-imino-1,3-dihydro-isoindol-2-yl)-acetyl]-2-methoxy-phenyl}-piperidin-4-one hydrobromide] | – | – | 0.044 | 0.029 | 0.013
CCOc1cc2c(c(F)c1OCC)C(=N)N(CC(=O)c1cc(N3CCN(CC(=O)O)CC3)c(OC)c(C(C)(C)C)c1)C2 [Example 127, (4-{3-tert-Butyl-5-[2-(5,6-diethoxy-7-fluoro-1-imino-1,3-dihydro-isoindol-2-yl)-acetyl]-2-methoxy-phenyl}-piperazin-1-yl)-acetic acid dihydrochloride] | – | – | 0.15 | 0.021 | 0.017
CCOc1cc2c(c(F)c1OCC)C(=N)N(CC(=O)c1cc(N3C[C@H](OCC)[C@@H](O)C3)c(OC)c(C(C)(C)C)c1)C2 [Example 17, 1-[3-tert-Butyl-5-((3S,4S)-3-ethoxy-4-hydroxy-pyrrolidin-1-yl)-4-methoxy-phenyl]-2-(5,6-diethoxy-7-fluoro-1-imino-1,3-dihydro-isoindol-2-yl)ethanone trifluoroacetate] | – | – | – | 0.08 | 0.032
